Test results as given in article PMC5601486, “Identification of 4-phenylquinolin-2(1H)-one as a specific allosteric inhibitor of Akt” (Scientific Reports, 2017).
Where two headings read alike, the source gives them in different places.

Columns and labels:
TAOK1 = experiment: KINOMEscan; details: 50000 nM
Experimental: KINOMEscan™ selectivity screen
(§2) The assay was perfor med at DiscoveRx Corporation according the methods published previously5. Briefly, Kinase-tagged T7 phage strains were grown in parallel in an E. coli host derived from the BL21 strain. E. coli were grown to log-phase and infected with T7 phage from a frozen stock and incubated with shaking at 32°C until lysis (90-150 minutes). The kinases were produced in HEK-293 cells and subsequently tagged with DNA for qPCR detection. Streptavidin-coated magnetic beads were treated with biotinylated small molecule ligands to generate affinity resins for kinase
(§3) inhibitor or DMSO control was performed in polypropylene 384-well plates for 1 hr at room temperature. After wash with PBS buffer containing 0.05% Tween 20, the beads were incubated in elution buffer (PBS containing 0.05 % Tween 20 and 0.5 μM non-biotinylated affinity ligand) for 30 minutes at room temperature. The kinase concentration in the eluates was measured by qPCR.

ERK4 = experiment: KINOMEscan; details: 50000 nM
Experimental: KINOMEscan™ selectivity screen
as §2, §3

HIPK2 = experiment: KINOMEscan; details: 50000 nM
Experimental: KINOMEscan™ selectivity screen
as §2, §3

ACVR2A = experiment: KINOMEscan; details: 50000 nM
Experimental: KINOMEscan™ selectivity screen
as §2, §3

HUNK = experiment: KINOMEscan; details: 50000 nM
Experimental: KINOMEscan™ selectivity screen
(§4) Briefly, Kinase-tagged T7 phage strains were grown in parallel in an E. coli host derived from the BL21 strain. E. coli were grown to log-phase and infected with T7 phage from a frozen stock and incubated with shaking at 32°C until lysis (90-150 minutes). The kinases were produced in HEK-293 cells and subsequently tagged with DNA for qPCR detection. Streptavidin-coated magnetic beads were treated with biotinylated small molecule ligands to generate affinity resins for kinase
as §3

CDKL1 = experiment: KINOMEscan; details: 50000 nM
Experimental: KINOMEscan™ selectivity screen
as §4, §3

CSNK1G1 = experiment: KINOMEscan; details: 50000 nM
Experimental: KINOMEscan™ selectivity screen
as §2, §3

PDGFRA = experiment: KINOMEscan; details: 50000 nM
Experimental: KINOMEscan™ selectivity screen
as §2, §3

MRCKB = experiment: KINOMEscan; details: 50000 nM
Experimental: as §4, §3

NEK1 = experiment: KINOMEscan; details: 50000 nM
Experimental: as §4, §3

ROCK2 = experiment: KINOMEscan; details: 50000 nM
Experimental: KINOMEscan™ selectivity screen
as §2, §3

ERBB4 = experiment: KINOMEscan; details: 50000 nM
Experimental: KINOMEscan™ selectivity screen
as §2, §3

RAF1 = experiment: KINOMEscan; details: 50000 nM
Experimental: KINOMEscan™ selectivity screen
as §2, §3

DAPK1 = experiment: KINOMEscan; details: 50000 nM
Experimental: KINOMEscan™ selectivity screen
as §2, §3

mTORC2 = experiment: Western blot of mTOR S2481 phosphorylation; format: cell-based, Mouse; details: all concentrations tested including 80 µM
Experimental: Neuro 2A cells were seeded in 12-well plates in DMEM containing 5% FBS for 24 hr.
After overnight serum starvation (in 0% FBS DMEM), cells were incubated for 30 min at 37 °C with G7 or LY294002 or Torin 1 (Sigma Aldrich) at various concentrations, or DMSO control. IGF-1 was added to each well at a final concentration of 100 ng/mL. After 30-min incubation cells were washed with cold PBS and lysed with 50 µL lysis buffer containing 1% Triton X-100 and protease/phosphatase inhibitors (Cell Signaling Technology) or RIPA buffer (Santa Cruz Biotech). Samples were electrophoresed in 4–12% Bis-Tris gels (Life Technologies) at 150 V using MOPS SDS running buffer. Proteins were transferred electrophoretically to a PVDF or nitrocellulose membrane. For detection of cleaved […]
caspase 3 a Trans-Blot Turbo Transfer System (Bio-Rad, 25 V for 25 min) with PVDF membrane were used. […]
anti- GAPDH (14C10) antibody (#2118) (all antibodies were from Cell Signaling Technology unless indicated, 1:1000 dilution was used) at 4°C overnight, washed three times with TBS-T, then incubated with peroxidase-conjugated secondary antibody (Sigma-Aldrich) for 1 hr at room temperature. […] Band intensity was quantitated using Kodak 1D imaging analysis software. […]

[1] = tested on: ABL1(H396P)-nonphosphorylated; experiment: KINOMEscan; details: 50000 nM
Experimental: KINOMEscan™ selectivity screen
as §2, §3

LTK = experiment: KINOMEscan; details: 50000 nM
Experimental: KINOMEscan™ selectivity screen
as §2, §3

INSRR = experiment: KINOMEscan; details: 50000 nM
Experimental: KINOMEscan™ selectivity screen
as §2, §3

ERBB2 = experiment: KINOMEscan; details: 50000 nM
Experimental: KINOMEscan™ selectivity screen
as §2, §3

CSNK1G3 = experiment: KINOMEscan; details: 50000 nM
Experimental: KINOMEscan™ selectivity screen
as §4, §3

GRK2 = experiment: KINOMEscan; details: 50000 nM
Experimental: KINOMEscan™ selectivity screen
as §4, §3

full-length Akt = molecular target: T1, full-length Akt (Homo sapiens, UniProt P31749); experiment: Microscale thermophoresis; format: binding
T1 construct: purchased Millipore
T1 sequence (P31749 whole entry): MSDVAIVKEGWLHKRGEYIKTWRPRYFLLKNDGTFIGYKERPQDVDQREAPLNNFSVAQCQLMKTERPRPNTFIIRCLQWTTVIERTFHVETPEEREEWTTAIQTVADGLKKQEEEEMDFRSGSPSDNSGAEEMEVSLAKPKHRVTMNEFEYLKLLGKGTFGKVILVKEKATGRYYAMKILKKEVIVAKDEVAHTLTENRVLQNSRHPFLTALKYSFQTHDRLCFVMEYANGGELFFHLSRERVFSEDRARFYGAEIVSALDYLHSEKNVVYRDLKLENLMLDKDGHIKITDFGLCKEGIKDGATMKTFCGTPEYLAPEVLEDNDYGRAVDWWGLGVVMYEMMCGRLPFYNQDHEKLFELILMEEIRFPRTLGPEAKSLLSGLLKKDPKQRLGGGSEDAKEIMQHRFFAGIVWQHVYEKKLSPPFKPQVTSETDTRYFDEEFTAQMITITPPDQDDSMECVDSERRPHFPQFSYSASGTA
Experimental: (§1) Using 0.1 M Tris-HCl buffer (pH 7.2) containing 0.05% Tween-20, a 1:1 serial dilution was prepared for G7 to yield 16 working solutions, with the highest concentration being 200 µM. Each of these G7 solutions was mixed with 1 µM of purified Akt sample prepared in the same 0.05% Tween-20 Tris-HCl buffer. […] After 15-min incubation the samples were centrifuged at 14,000 g at 4 °C before loading into premium coated capillaries (NanoTemper Tech.) for MST measurements. The MST experiments was conducted on a Monolith NT.LabelFree instrument (NanoTemper Tech.), at 20% LED power and 40% MST power. Data analyses were performed using the NanoTemper analysis software.

Akt PH domain = molecular target: T2, Akt PH domain (Homo sapiens, UniProt P31749); experiment: Microscale thermophoresis; format: binding; details: recombinant Akt PH domain
T2 construct: The Akt samples tested include recombinant Akt PH domain; purchased Millipore
T2 sequence (P31749 5-108 limits assumed): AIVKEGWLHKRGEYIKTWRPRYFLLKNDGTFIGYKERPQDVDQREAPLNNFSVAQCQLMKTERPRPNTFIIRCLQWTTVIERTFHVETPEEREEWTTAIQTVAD
Experimental: as §1

CAMK1 = experiment: KINOMEscan; details: 50000 nM
Experimental: KINOMEscan™ selectivity screen
as §2, §3

DLK = experiment: KINOMEscan; details: 50000 nM
Experimental: KINOMEscan™ selectivity screen
as §2, §3

SRPK2 = experiment: KINOMEscan; details: 50000 nM
Experimental: KINOMEscan™ selectivity screen
The assay was perfor med at DiscoveRx Corporation according the methods published previously5. […] The kinases were produced in HEK-293 cells and subsequently tagged with DNA for qPCR detection. Streptavidin-coated magnetic beads were treated with biotinylated small molecule ligands to generate affinity resins for kinase
as §3

CAMKK2 = experiment: KINOMEscan; details: 50000 nM
Experimental: KINOMEscan™ selectivity screen
as §2, §3

[2] = tested on: RPS6KA5(Kin.Dom.1-N-terminal); experiment: KINOMEscan; details: 50000 nM
Experimental: KINOMEscan™ selectivity screen
as §2, §3

p38-alpha = experiment: KINOMEscan; details: 50000 nM
Experimental: KINOMEscan™ selectivity screen
as §4, §3

STK33 = experiment: KINOMEscan; details: 50000 nM
Experimental: KINOMEscan™ selectivity screen
as §2, §3

ALK(L1196M) = experiment: KINOMEscan; details: 50000 nM
Experimental: KINOMEscan™ selectivity screen
as §2, §3

NDR1 = experiment: KINOMEscan; details: 50000 nM
Experimental: KINOMEscan™ selectivity screen
as §4, §3

SMILES: Oc1cc(-c2ccccc2)c2ccccc2n1 [G7, 4-phenylquinolin-2(1H)-one]
- Percent Control (TAOK1): 95%
- Percent Control (ERK4): 86%
- Percent Control (HIPK2): 63%
- Percent Control (ACVR2A): 100%
- Percent Control (HUNK): 70%
- Percent Control (CDKL1): 100%
- Percent Control (CSNK1G1): 89%
- Percent Control (PDGFRA): 52%
- Percent Control (MRCKB): 84%
- Percent Control (NEK1): 88%
- Percent Control (ROCK2): 81%
- Percent Control (ERBB4): 86%
- Percent Control (RAF1): 95%
- Percent Control (DAPK1): 63%
- phosphorylation of mTORC2 at S2481 (mTORC2): did not inhibit
- Percent Control [1]: 62%
- Percent Control (LTK): 95%
- Percent Control (INSRR): 64%
- Percent Control (ERBB2): 98%
- Percent Control (CSNK1G3): 71%
- Percent Control (GRK2): 91%
- Kd (full-length Akt; active Akt, read-out: Kd): 6.3 ± 2.9 µM
- Kd (full-length Akt; full-length Akt regardless of the activation status, read-out: Kd values): 4 to 6 µM
- Kd (full-length Akt; inactive Akt, read-out: Kd): 3.7 ± 1 µM
- Kd (Akt PH domain): 8 µM
- Percent Control (CAMK1): 84%
- Percent Control (DLK): 78%
- Percent Control (SRPK2): 84%
- Percent Control (CAMKK2): 90%
- Percent Control [2]: 89%
- Percent Control (p38-alpha): 83%
- Percent Control (STK33): 100%
- Percent Control (ALK(L1196M)): 85%
- Percent Control (NDR1): 83%
